The values below come from patent US7790899B2, “Synthesis of N-(4-fluorobenzyl)-N-(1-methylpiperidin-4-yl)-N′-(4-(2-methylpropyloxy)phenylmethyl)carbamide and its tartrate salt and crystalline forms” (ACADIA Pharmaceuticals, Inc., priority 2004, dated 2010).

A word on the solubility: it is the dissolved amount per volume that the medium holds.

Series [1] can be described thus: Approximate solubility of Form A: saturated solutions, gravimetric determination after solvent removal. In kind it is physicochemical. As for the experimental part: Approximate solubility was measured by preparation of saturated solutions in various solvents and gravimetric determination of dissolved substance after solvent removal.
A short description of series [2]: Stability test, thermal treatment (sealed ampoules, 100° C., HPLC purity). The note with it: 1 week. The class given is physicochemical. As for the experimental part: (§1) HPLC: HPLC measurements were carried out with a HP LC1090M, Column Symmetry C18, 3.0·150 mm.
The compounds of Examples 3(b) (polymorph A), 25 (polymorph B), and 36 (polymorph C) were placed in sealed ampoules and exposed for 1 week to 100° C. […] The products where analyzed by HPLC and the purity was detected to indicate chemical stability via decomposition.

Series [3] in a line: Stability test, exposure to humidity (open containers, 60° C., 75% relative humidity). The class given is physicochemical. The note with it: 1 week and 2 weeks, listed as polymorph A. On the procedure:
as §1
The compounds of Examples 3(b) (polymorph A), 25 (polymorph B), and 36 (polymorph C) were placed in open containers and exposed 1 week and 2 weeks at 60° C. and 75% relative humidity. In polymorph A, a water content of 2.8% was detected and the HPLC purity was 80%.

Series [4] in a line: Water absorption and behaviour on exposure to relative humidity. In kind it is physicochemical.
Series [5] in a line: Stability of the crystal forms (general findings). The note with it: ambient temperatures. In kind it is physicochemical.
Series [6] can be described thus: Solubility statements in the description.
The next series is described as follows: physchem. The note with it: aqueous solubility.

`CC(C)COc1ccc(CNC(=O)N(Cc2ccc(F)cc2)C2CCN(C)CC2)cc1.CC(C)COc1ccc(CNC(=O)N(Cc2ccc(F)cc2)C2CCN(C)CC2)cc1.O=C(O)C(O)C(O)C(=O)O` [Form A, N-(4-fluorobenzyl)-N-(1-methylpiperidin-4-yl)-N′-(4-(2-methylpropyloxy)phenylmethyl)carbamide hemi-tartrate]: the solubility in series [1] (aqueous with cosolvent or surfactant or cyclodextrin, thermodynamic from solid, acetone/water (1:1), read-out: Solubility) is more than 200000 µg/mL; in series [1] (ethanol), more than 10000 µg/mL; in series [1] (organic solvent or mixture, thermodynamic from solid, 1,4-dioxane, read-out: Solubility), approximately 2000 µg/mL; in series [1] (organic solvent or mixture, thermodynamic from solid, 2-propanol, read-out: Solubility), approximately 1000 µg/mL; in series [1] (organic solvent or mixture, thermodynamic from solid, 2-propanol/water (9:1), read-out: Solubility) it was less than 1000 µg/mL; in series [1] (organic solvent or mixture, thermodynamic from solid, acetone, read-out: Solubility), approximately 2000 µg/mL. Besides, the solubility is approximately 2000 µg/mL in series [1] (organic solvent or mixture, thermodynamic from solid, acetonitrile, read-out: Solubility); more than 30000 µg/mL in series [1] (organic solvent or mixture, thermodynamic from solid, dichloromethane, read-out: Solubility); more than 200000 µg/mL in series [1] (organic solvent or mixture, thermodynamic from solid, dimethylsulfoxide, read-out: Solubility); less than 1000 µg/mL in series [1] (organic solvent or mixture, thermodynamic from solid, ethyl acetate, read-out: Solubility); more than 100000 µg/mL in series [1] (organic solvent or mixture, thermodynamic from solid, methanol, read-out: Solubility); less than 1000 µg/mL in series [1] (organic solvent or mixture, thermodynamic from solid, methyl ethyl ketone, read-out: Solubility). In addition, the solubility in series [1] (organic solvent or mixture, thermodynamic from solid, t-butyl methyl ether, read-out: Solubility) was less than 1000 µg/mL; in series [1] (organic solvent or mixture, thermodynamic from solid, toluene, read-out: Solubility), less than 1000 µg/mL; in series [1] (tetrahydrofuran) it was more than 5000 µg/mL; in series [1] (thermodynamic from solid, water, read-out: Solubility) it was more than 300000 µg/mL. For the same molecule, in series [2], the “State of the material after thermal treatment” value is “formed a deliquescent compact material”. Also, the “HPLC purity after thermal treatment” value in series [2] (listed as polymorph A) turned out to be 25.9%. Also, the “HPLC purity after exposure to humidity” value in series [3] amounted to 80%. Moreover, the “water content after exposure to humidity” value in series [3] worked out at 2.8%. Also, in series [4] (above 75% relative humidity), the “Water uptake when exposed to humidity” value is “considerable water uptake”. Besides, in series [4] (relative humidities between 20% and 75%), the “Stability under ambient water partial pressures” value is “sufficient stability”. Besides, the “Stability at ambient temperatures” value in series [5] was “stable”. Moreover, the “amount that can be dissolved in tetrahydrofuran” value in series [6] (tetrahydrofuran, reflux temperature) is recorded as “about 200 mg/ml”. Also, the “Solubility in water or aqueous systems (in words)” value in series [6] (water) is “well soluble”.
In “physchem”, `CC(C)COc1ccc(CNC(=O)N(Cc2ccc(F)cc2)C2CCN(C)CC2)cc1` [Form E, N-(4-fluorobenzyl)-N-(1-methylpiperidin-4-yl)-N′-(4-(2-methylpropyloxy)phenylmethyl)carbamide hemi-tartrate] registered a solubility of more than 200000 µg/mL.
